One data set has as its system Xenopus laevis epidermis. It counts as cell-based.
Data set [1] concerns mouse intestinal loops challenged with cholera toxin. It counts as in vivo.
The test system of the next data set is CHO cells. It counts as cell-based, Chinese hamster.
The conditions of data set [2]: 168 h, pH 5.5.
The nature of another data set: physchem. Particulars: pH 5.5.
The subject of data set [3] is mouse intestinal loops challenged with cholera toxin. It counts as in vivo. Particulars: 6 hour.
The target of the next data set is Adenylate Cyclase (Bordetella pertussis, UniProt P0DKX7). The experiment in a line: biochemical. It counts as biochemical.
Adenylate Cyclase, sequence (P0DKX7 whole entry, looked up): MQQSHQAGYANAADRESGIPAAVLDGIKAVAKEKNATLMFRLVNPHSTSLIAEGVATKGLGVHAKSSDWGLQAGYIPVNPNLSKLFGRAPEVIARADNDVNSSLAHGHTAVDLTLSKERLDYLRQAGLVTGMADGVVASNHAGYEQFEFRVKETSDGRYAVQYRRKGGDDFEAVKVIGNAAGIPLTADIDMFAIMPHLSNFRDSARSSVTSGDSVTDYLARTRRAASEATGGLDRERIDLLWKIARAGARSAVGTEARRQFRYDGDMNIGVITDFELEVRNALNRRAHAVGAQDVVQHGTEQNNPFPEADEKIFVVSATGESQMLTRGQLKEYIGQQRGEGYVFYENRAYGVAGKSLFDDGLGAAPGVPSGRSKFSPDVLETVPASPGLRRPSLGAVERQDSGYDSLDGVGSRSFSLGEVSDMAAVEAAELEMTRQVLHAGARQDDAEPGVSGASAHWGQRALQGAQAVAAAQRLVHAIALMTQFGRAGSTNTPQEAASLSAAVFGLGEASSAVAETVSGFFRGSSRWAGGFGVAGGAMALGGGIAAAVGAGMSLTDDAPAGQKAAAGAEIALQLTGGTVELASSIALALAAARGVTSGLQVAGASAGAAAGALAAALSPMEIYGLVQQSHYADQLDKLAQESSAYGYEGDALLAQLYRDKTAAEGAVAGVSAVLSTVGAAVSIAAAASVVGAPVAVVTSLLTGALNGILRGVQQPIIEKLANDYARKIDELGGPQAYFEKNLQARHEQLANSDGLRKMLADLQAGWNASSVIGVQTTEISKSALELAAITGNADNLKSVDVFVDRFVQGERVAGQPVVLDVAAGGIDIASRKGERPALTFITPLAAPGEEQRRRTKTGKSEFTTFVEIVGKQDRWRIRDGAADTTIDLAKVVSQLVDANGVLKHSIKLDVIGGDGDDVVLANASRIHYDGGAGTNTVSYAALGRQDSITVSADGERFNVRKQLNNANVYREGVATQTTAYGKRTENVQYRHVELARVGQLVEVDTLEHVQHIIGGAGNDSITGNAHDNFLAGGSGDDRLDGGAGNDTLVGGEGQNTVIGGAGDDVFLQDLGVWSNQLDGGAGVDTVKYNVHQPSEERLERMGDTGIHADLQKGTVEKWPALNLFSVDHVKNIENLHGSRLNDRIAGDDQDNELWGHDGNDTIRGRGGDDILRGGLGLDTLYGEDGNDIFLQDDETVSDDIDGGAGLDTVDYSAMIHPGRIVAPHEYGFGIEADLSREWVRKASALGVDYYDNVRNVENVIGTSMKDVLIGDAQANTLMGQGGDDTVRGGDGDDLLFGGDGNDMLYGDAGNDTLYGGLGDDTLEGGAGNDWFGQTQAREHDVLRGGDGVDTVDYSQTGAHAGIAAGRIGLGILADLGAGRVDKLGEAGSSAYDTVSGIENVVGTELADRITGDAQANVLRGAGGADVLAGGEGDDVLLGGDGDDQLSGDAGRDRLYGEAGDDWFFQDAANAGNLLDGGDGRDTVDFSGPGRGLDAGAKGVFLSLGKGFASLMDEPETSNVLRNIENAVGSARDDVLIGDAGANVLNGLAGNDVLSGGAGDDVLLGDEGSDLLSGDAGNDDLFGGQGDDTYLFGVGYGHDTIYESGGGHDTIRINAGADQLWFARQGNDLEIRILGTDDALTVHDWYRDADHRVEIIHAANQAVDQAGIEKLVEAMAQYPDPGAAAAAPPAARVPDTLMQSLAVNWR
The mark [4] stands for this setting: enzyme 4.6 nmoles, imidazole 2.7 mmoles, PGE2-Histidine adduct 52 μmoles, celecoxib 0.52 mmoles.

“Also recorded” adds a separate entry of the source. Like-named read-outs stand apart in the source and are kept apart here.

For `CCCCCC(O)/C=C/[C@H]1C(O)CC(=O)[C@H]1C/C=C\CCCC(=O)O` (some centres unmarked) [PGE2, reference compound], the “increase of steady-state Na+-dependent short circuit current (ISC)” value in the data set with Xenopus laevis epidermis is 14%. Besides, in the data set with Xenopus laevis epidermis (n=5), the “maximum PGE2-induced change in ISC” value worked out at 18±3%.
With `CCCCC[C@H](O)/C=C/[C@H]1C=CC(=O)[C@@H]1C/C=C\CCCC(=O)O` [PGA2, reference compound], the “CT-induced fluid accumulation in murine intestinal loops” value in data set [1] (mouse, in vivo) was “reduce CT-induced fluid accumulation in murine intestinal loops with lower potency”.
For the compound `CC(=O)N[C@@H](CS)C(=O)O` [NAC, N-acetyl-L-cysteine, reference compound], the intestinal fluid accumulation entry in data set [1] (mouse, in vivo) is on record as “blocked all intestinal fluid accumulation”. Also, in data set [1] (mouse, in vivo, ip, pH 7), the “protection against CT-induced fluid secretion in small intestinal loops” value was “no protective effect”.
On to `COc1ccc(-n2nc(C(F)(F)F)cc2-c2ccc(Cl)cc2)cc1` [SC560, reference compound], for which the “cholera toxin-induced fluid secretion” value in data set [1] (mouse, in vivo, sc) is listed as “inhibits cholera toxin-induced fluid secretion”.
The half-life is the time needed for the level to fall by half in the phase considered. Regarding `CCCCCC(O)/C=C/[C@H]1C(n2ccnc2)CC(=O)[C@H]1C/C=C\CCCC(=O)O` (some centres unmarked) [PGE2-imidazole, 11-deoxy-11-imidazolyl-PGE2], the “inhibition of CT-induced cAMP formation” value in the data set with CHO cells was “significant inhibition; also recorded: reduces cAMP levels”. Also, the “reduction of cAMP levels” value with CHO cells (0.5 μg/ml) was “approximately 50%”. For the same compound, in data set [2], the adduct remaining is reported as 10%. In “physchem”, this compound had a half-life of roughly 60 h. Further, in data set [3], the “cAMP levels in the intestinal loop fluids” value was “markedly reduced”. In addition, in data set [1] (6 hour), the CT-induced fluid accumulation entry was “significantly reduced”. Besides, in data set [1] (mouse, in vivo), the “fluid loss following CT challenge” value is listed as “completely blocked” and the “inhibition of the CT fluid response” value was “virtually complete inhibition”.
With `CCCCC[C@H](O)/C=C/C1=C(C/C=C\CCCC(=O)O)C(=O)CC1` [PGB2, reference compound], in data set [1] (mouse, in vivo), the “CT-induced fluid accumulation in murine intestinal loops” value is reported as “reduce CT-induced fluid accumulation in murine intestinal loops with lower potency”.
A word on the IC50: it is the point on the concentration scale where inhibition reaches its midpoint. At Adenylate Cyclase, `c1c[nH]cn1` [imidazole] showed a concentration for half-maximal inhibition (IC50) of 1570 µM. For the same compound, the “inhibition of adenylate cyclase enzyme activity (FIG. 12)” value (“inhibition … (FIG. 12)” below) at Adenylate Cyclase (setting [4]) is listed as “inhibit adenylate cyclase enzyme activity”. In addition, the “Ratio Enzyme:Drug, molar concentration required to inhibit Adenylate Cyclase” value at Adenylate Cyclase (enzyme 0.46 nm) was 0.46 nm:1.57 mm.
Regarding `CS(=O)(=O)c1ccc(C2=C(c3ccccc3)C(=O)OC2)cc1` [rofecoxib, reference compound], the “inhibition … (FIG. 12)” value at Adenylate Cyclase (setting [4]) is listed as “absence of adenylate cyclase inhibition”. For the same compound, the cholera toxin-induced secretion entry in data set [1] (mouse, in vivo) is recorded as “does not inhibit cholera toxin-induced secretion”.
As to `N[C@@H](Cc1c[nH]cn1)C(=O)O` [L-histidine], in the data set on CHO cells, the “PGE2- and CT-stimulated cAMP formation in CHO cells” value is “reduced the capacity of both PGE2 and CT to stimulate cAMP formation”. For the same compound, in the data set on Xenopus laevis epidermis, the “Difference in ISC between PGE2 and PGE2+L-histidine” value was found to be 78±21%; the “ISC, % of control” value is reported as 30±9 % of control; the “basal and PGE2-induced sodium transport” value was “reduced both basal and PGE2-induced sodium transport”. In addition, in data set [1] (6 hours), the “fluid accumulation in mouse intestinal loops challenged with cholera toxin” value is recorded as “as the dose of L-histidine was increased, the amount of fluid accumulation decreased; also recorded: accumulated significantly less fluid” and the “reduction of fluid accumulation, statistical significance” value is on record as “statistical significance (P<0.05)”.
“prostaglandin E2-histidine [PGE2-histidine]”: the “inhibition … (FIG. 12)” value against Adenylate Cyclase is given as “inhibit adenylate cyclase enzyme activity”. In addition, the 50% inhibitory concentration (IC50) on Adenylate Cyclase (read-out: IC50 dose inhibiting 50% of the enzyme activity) came out at 21.5 µM. In data set [1] (mouse, in vivo), the “inhibition of the CT fluid response” value is “virtually complete inhibition”.
For the compound `Cc1ccc(-c2cc(C(F)(F)F)nn2-c2ccc(S(N)(=O)=O)cc2)cc1` [celecoxib, reference compound], the IC50 at Adenylate Cyclase was determined as 20 µM. Moreover, the “inhibition … (FIG. 12)” value on Adenylate Cyclase (setting [4]) is given as “inhibit adenylate cyclase enzyme activity”. Further, the “CT-induced fluid accumulation in murine intestinal loops” value in data set [1] (6 hours) was “significantly reduced”.
